Assay results from PubChem BioAssay AID292 (DTP/NCI, 2004).
Values joined by “and” are separate entries in the source; they are usually repeats but may differ in a detail not shown here. Equal entries are not always repeated. Inconclusive results and toxic doses are left out. Rule for the calls: active = survival T/C of 150% or more; inactive = T/C below 125% in these data.

Test system: B6C3F1 mice, ip Sarcoma M5076, median survival T/C
Assay: NCI In Vivo Anticancer Drug Screen. Data for tumor model Sarcoma M5076 (intraperitoneal) in B6C3F1 mice
Conditions: endpoint: median survival time, higher = longer survival
In short: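 Survival measured in treated (T) and vehicle control (C) mice with transplantable tumour; result given as T divided by C.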

[1] = dose: 25.0 mg/kg/injection, schedule: Q04DX004 (ip), vehicle: water
[2] = dose: 50.0 mg/kg/injection, schedule: Q04DX004 (ip), vehicle: water
[3] = dose: 25.0 mg/kg/injection, schedule: Q04DX004 (ip), vehicle: saline
[4] = dose: 50.0 mg/kg/injection, schedule: Q04DX004 (ip), vehicle: saline
[5] = dose: 100.0 mg/kg/injection, schedule: Q04DX004 (ip), vehicle: saline
[6] = dose: 200.0 mg/kg/injection, schedule: Q04DX004 (ip), vehicle: saline
[7] = dose: 100.0 mg/kg/injection, schedule: Q04DX004 (ip), vehicle: water
[8] = dose: 200.0 mg/kg/injection, schedule: Q04DX004 (ip), vehicle: water
[9] = dose: 25.0 mg/kg/injection, schedule: Q04DX004 (ip), vehicle: Klucel (hydroxypropylcellulose) (HPC)
[10] = dose: 50.0 mg/kg/injection, schedule: Q04DX004 (ip), vehicle: Klucel (hydroxypropylcellulose) (HPC)
[11] = dose: 25.0 mg/kg/injection, schedule: Q04DX004 (ip), vehicle: saline with Tween-80
[12] = dose: 50.0 mg/kg/injection, schedule: Q04DX004 (ip), vehicle: saline with Tween-80
[13] = dose: 200.0 mg/kg/injection, schedule: Q04DX004 (ip), vehicle: saline with Tween-80
[14] = dose: 100.0 mg/kg/injection, schedule: Q04DX004 (ip), vehicle: Klucel (hydroxypropylcellulose) (HPC)
[15] = dose: 400.0 mg/kg/injection, schedule: Q04DX004 (ip), vehicle: Klucel (hydroxypropylcellulose) (HPC)

Measured: T/C

O=C1C2C3C=CC(C2C(=O)N1CO)C1C2C(=O)N(CO)C(=O)C2C31 (stereo not given)
inactive: dose: 12.5 mg/kg/injection, schedule: Q04DX004 (ip), vehicle: water 103 % of control | [1] 103 % of control | [2] 98 % of control

O=S(=O)(O)c1cc(N=C=S)ccc1/C=C/c1ccc(N=C=S)cc1S(=O)(=O)O
inactive: [3] 100 % of control | [4] 103 % of control | [5] 110 % of control | [6] 112 % of control

Cc1c(O)/c(=C\O)c2nc3c(=O)ccc(C(=O)NCCN(C)C)c3[nH]c2c1=O
inactive: [1] 100 % of control | [2] 107 % of control | [7] 107 % of control | [8] 112 % of control

Cc1ccc2c(c1)C1(C)OC(C=CC1=O)O2 (stereo not given)
inactive: [9] 96 % of control | [10] 103 % of control

CC(=O)NC(CSC1=C2NC(=O)\C=C/C=C/C=C\C(C)C(O)CC(=O)/C(C)=C\CC(O)/C=C/C(C)C(O)C(C)C=C(C)C(=O)c3c(O)c(C)cc(c3C1=O)C2=O)C(=O)O (stereo not given)
inactive: dose: 1.25 mg/kg/injection, schedule: Q04DX004 (ip), vehicle: Klucel (hydroxypropylcellulose) (HPC) 100 % of control | dose: 2.5 mg/kg/injection, schedule: Q04DX004 (ip), vehicle: Klucel (hydroxypropylcellulose) (HPC) 100 % of control | dose: 5.0 mg/kg/injection, schedule: Q04DX004 (ip), vehicle: Klucel (hydroxypropylcellulose) (HPC) 101 % of control | dose: 10.0 mg/kg/injection, schedule: Q04DX004 (ip), vehicle: Klucel (hydroxypropylcellulose) (HPC) 93 % of control | dose: 20.0 mg/kg/injection, schedule: Q04DX004 (ip), vehicle: Klucel (hydroxypropylcellulose) (HPC) 100 % of control

OCCC(N1CCOCC1)C(O)(c1ccccc1)c1ccccc1 (stereo not given)
inactive: dose: 37.5 mg/kg/injection, schedule: Q04DX004 (ip), vehicle: saline with Tween-80 103 % of control | dose: 75.0 mg/kg/injection, schedule: Q04DX004 (ip), vehicle: saline with Tween-80 106 % of control | dose: 150.0 mg/kg/injection, schedule: Q04DX004 (ip), vehicle: saline with Tween-80 107 % of control | dose: 300.0 mg/kg/injection, schedule: Q04DX004 (ip), vehicle: saline with Tween-80 100 % of control | dose: 600.0 mg/kg/injection, schedule: Q04DX004 (ip), vehicle: saline with Tween-80 93 % of control

O=CC(CO)CC(C=O)n1cnc2c(=O)[nH]cnc21 (stereo not given)
inactive: dose: 37.0 mg/kg/injection, schedule: Q04DX004 (ip), vehicle: saline 104 % of control | dose: 75.0 mg/kg/injection, schedule: Q04DX004 (ip), vehicle: saline 105 % of control | dose: 300.0 mg/kg/injection, schedule: Q04DX004 (ip), vehicle: saline 124 % of control

CC(=O)/C(=C\c1ccc(/C=C(\C(C)=O)C(=O)CCN(C)C)cc1)C(=O)CCN(C)C
inactive: dose: 400.0 mg/kg/injection, schedule: Q04DX004 (ip), vehicle: saline with Tween-80 92 % of control

CN=C(NC)c1ccc(NC(=O)/C=C\c2ccc(/C=C/C(=O)Nc3ccc(C(=NC)NC)cc3)cc2)cc1
inactive: dose: 3.12 mg/kg/injection, schedule: Q04DX004 (ip), vehicle: Klucel (hydroxypropylcellulose) (HPC) 124 % of control | dose: 3.75 mg/kg/injection, schedule: Q04DX004 (ip), vehicle: Klucel (hydroxypropylcellulose) (HPC) 116 % of control | dose: 6.25 mg/kg/injection, schedule: Q04DX004 (ip), vehicle: Klucel (hydroxypropylcellulose) (HPC) 115 % of control | dose: 17.37 mg/kg/injection, schedule: Q04DX004 (ip), vehicle: Klucel (hydroxypropylcellulose) (HPC) 105 % of control
active: dose: 10.42 mg/kg/injection, schedule: Q04DX004 (ip), vehicle: Klucel (hydroxypropylcellulose) (HPC) 164 % of control

BrC[P+](CBr)(CBr)CBr
active: dose: 125.0 mg/kg/injection, schedule: Q04DX004 (ip), vehicle: saline with Tween-80 186 % of control
inactive: dose: 15.63 mg/kg/injection, schedule: Q04DX004 (ip), vehicle: saline with Tween-80 107 % of control and 115 % of control

Cc1cccc(OCC(O)CN2CC2)c1 (stereo not given)
inactive: [11] 101 % of control and 104 % of control | dose: 36.0 mg/kg/injection, schedule: Q04DX004 (ip), vehicle: saline with Tween-80 97 % of control | [12] 105 % of control and 114 % of control | dose: 60.0 mg/kg/injection, schedule: Q04DX004 (ip), vehicle: saline with Tween-80 102 % of control | dose: 166.66 mg/kg/injection, schedule: Q04DX004 (ip), vehicle: saline with Tween-80 119 % of control | [13] 108 % of control | dose: 277.77 mg/kg/injection, schedule: Q04DX004 (ip), vehicle: saline with Tween-80 116 % of control

C=C1C(O)C2(O)OCC34C(CC5C(C)=CC(=O)C(O)C5(C)C23)OC(=O)C(OC(=O)C/C=C/CCCCCCCC)C14 (stereo not given)
inactive: dose: 2.0 mg/kg/injection, schedule: Q04DX004 (ip), vehicle: saline + alcohol 96 % of control | dose: 2.88 mg/kg/injection, schedule: Q04DX004 (ip), vehicle: saline + alcohol 116 % of control | dose: 2.89 mg/kg/injection, schedule: Q04DX004 (ip), vehicle: saline + alcohol 112 % of control | dose: 4.0 mg/kg/injection, schedule: Q04DX004 (ip), vehicle: saline + alcohol 107 % of control | dose: 4.8 mg/kg/injection, schedule: Q04DX004 (ip), vehicle: saline + alcohol 110 % of control | dose: 13.33 mg/kg/injection, schedule: Q04DX004 (ip), vehicle: saline + alcohol 124 % of control | dose: 16.0 mg/kg/injection, schedule: Q04DX004 (ip), vehicle: saline + alcohol 114 % of control

CN=C(N)c1ccc(N=C(N)c2ccc(C(N)=Nc3ccc(C(N)=NC)cc3)cc2)cc1
active: dose: 18.0 mg/kg/injection, schedule: Q01DX005 (ip), vehicle: saline 156 % of control
inactive: dose: 3.75 mg/kg/injection, schedule: Q01DX005 (ip), vehicle: saline 110 % of control | dose: 7.5 mg/kg/injection, schedule: Q01DX005 (ip), vehicle: saline 116 % of control | dose: 7.5 mg/kg/injection, schedule: Q04DX004 (ip), vehicle: saline 88 % of control | dose: 15.0 mg/kg/injection, schedule: Q01DX005 (ip), vehicle: saline 124 % of control | dose: 15.0 mg/kg/injection, schedule: Q04DX004 (ip), vehicle: saline 98 % of control | dose: 30.0 mg/kg/injection, schedule: Q04DX004 (ip), vehicle: saline 109 % of control

O=C1N=NC2=C1c1c3ccccc3c(O)n1CC2
inactive: [1] 97 % of control | [2] 95 % of control | [7] 93 % of control | [8] 100 % of control

CNC(=O)Oc1ccc(S(=O)(=O)c2ccc(OC(=O)NC)cc2)cc1
inactive: [11] 100 % of control | [12] 96 % of control and 104 % of control | dose: 100.0 mg/kg/injection, schedule: Q04DX004 (ip), vehicle: saline with Tween-80 96 % of control and 97 % of control | [13] 100 % of control and 101 % of control

O=C(N/N=C/c1ccc(O)cc1)c1ccc(OCc2nc3ccccc3[nH]2)cc1
inactive: [9] 96 % of control | [14] 93 % of control | [15] 92 % of control

NC(=O)c1c[nH]n(C2OC(CO)C(O)C2O)c1=O (stereo not given)
inactive: dose: 12.5 mg/kg/injection, schedule: Q04DX004 (ip), vehicle: saline 99 % of control | [3] 98 % of control | [4] 105 % of control | [5] 98 % of control | [6] 101 % of control

N#CC1C(=O)NC(=O)C(C#N)C1c1ccc(Cl)c(Cl)c1 (stereo not given)
inactive: [10] 102 % of control | [14] 94 % of control | dose: 200.0 mg/kg/injection, schedule: Q04DX004 (ip), vehicle: Klucel (hydroxypropylcellulose) (HPC) 99 % of control | [15] 102 % of control

O=C(O)Cc1cccc2c(=O)cc(-c3ccccc3)oc12
inactive: dose: 6.25 mg/kg/injection, schedule: Q04DX004 (ip), vehicle: suspension in saline 98 % of control | dose: 12.5 mg/kg/injection, schedule: Q04DX004 (ip), vehicle: suspension in saline 95 % of control | dose: 25.0 mg/kg/injection, schedule: Q04DX004 (ip), vehicle: suspension in saline 102 % of control | dose: 50.0 mg/kg/injection, schedule: Q04DX004 (ip), vehicle: suspension in saline 100 % of control | dose: 100.0 mg/kg/injection, schedule: Q04DX004 (ip), vehicle: suspension in saline 102 % of control
